From patent US7538241B2, “Hsp90 family protein inhibitors” (Kyowa Hakko Kogyo Co., Ltd., priority 2003, dated 2009) come the findings set out here.

The subject of the first assay is human mammary cancer-derived KPL-4 cells. Kind of assay: Cell growth inhibition test with KPL-4 cells (WST-1). It is filed as cell-based. As to conditions: KPL4, 72 hours, read-out: 50% growth inhibition concentration (GI50). The protocol:
In a 96-well plate (Nunc), human mammary cancer-derived KPL-4 cells were sown in an amount of 2000 cells/well, and pre-incubated in 10% fetal calf serum (FCS)-containing Dulbecco Modified Eagle Medium (DMEM) (incubation medium) in a 5% carbon dioxide incubator at 37° C. for 24 hours. A dimethylsulfoxide (DMSO) solution of a test compound controlled at 10 mmol/L was stepwise diluted with the incubation medium, and added to each well in a total amount of 100 μL/well, and incubated in the 5% carbon dioxide incubator at 37° C. for 72 hours. After the incubation, WST-1 {4-[3-(4-Iodophenyl)-2-(4-nitrophenyl)-2H-5-tetrazolio]-1,3-benzene disulfonate}-labeled mixture (Rosh Diagnostic) diluted 2-fold with the incubation medium was added thereto in an amount of 20 μL/well, and incubated in the 5% carbon dioxide incubator at 37° C. for 1 hour. Using a microplate spectrophotometer (Biorad's Model 550), the absorbance at 450 nm and 655 nm of each well was measured. The cell growth inhibition activity of the test compound was indicated by the 50% growth inhibition concentration (GI50) thereof. A method of calculating GI50 is described. The absorbance at 655 nm of each well was subtracted from the absorbance at 450 nm thereof to give a value (absorbance difference). The absorbance difference obtained with the cells without being treated with the test compound was taken as 100%, and this was compared with the absorbance difference obtained with the cells treated with the test compound to give the concentration of the compound for 50% cell growth inhibition, and this is referred to as GI50.
With `COC(=O)CCc1ccc(-c2c(O)cc(O)c(Br)c2CC(=O)OC)o1` [Compound 267, Methyl 3-{5-[5-bromo-2,4-dihydroxy-6-(methoxycarbonylmethyl)phenyl]furan-2-yl}propanoate], the GI50 was at most 50 µM.
Regarding `CCc1c(O)cc(O)c(-c2ccccc2)c1CC(O)C(O)CO` (stereo not shown) [Compound 180, 6-Ethyl-4-phenyl-5-(2,3,4-trihydroxybutyl)benzene-1,3-diol], the GI50 is at most 50 µM.
`COCCc1c(OC)c(O)cc(O)c1-c1ccccc1` [Compound 129, 6-Methoxy-5-(2-methoxyethyl)-4-phenylbenzene-1,3-diol]: the GI50 is at most 50 µM.
For the compound `COCCc1c(CC(C)C)c(O)cc(O)c1-c1ccccc1` [Compound 96, 6-Isobutyl-5-(2-methoxyethyl)-4-phenylbenzene-1,3-diol], the GI50 was at most 50 µM.
In the case of `COC(=O)Cc1c(-c2ccccc2)c(O)cc(O)c1-c1ccccc1` [Compound 11, Methyl 3,5-dihydroxy-2,6-diphenylphenylacetate], the GI50 was at most 50 µM.
As for `CCc1c(O)cc(O)c(-c2cccc(OCCO)c2)c1CCOCC(O)CO` (stereo not shown) [Compound 194, 5-[2-(2,3-Dihydroxypropoxy)ethyl]-6-ethyl-4-[3-(2-hydroxyethoxy)phenyl]benzene-1,3-diol], the GI50 is at most 50 µM.
As for `CCc1c(O)cc(O)c(-c2ccccc2)c1CCCOCC(N)=O` [Compound 158, 2-[3-(2-Ethyl-3,5-dihydroxy-6-phenylphenyl)propoxy]acetamide], the GI50 is at most 50 µM.
With `CCc1c(O)cc(O)c(-c2ccccc2)c1CCC(O)C(CO)CO` (stereo not shown) [Compound 185, 6-Ethyl-5-[3,5-dihydroxy-4-(hydroxymethyl)pentyl]-4-phenylbenzene-1,3-diol], the GI50 is at most 50 µM.
On the same count and under the same terms, the figure for `COC(=O)Cc1cc(O)cc(O)c1-c1ccc(Oc2ccccc2)cc1` [Compound 80, Methyl 3,5-dihydroxy-2-(4-phenoxyphenyl)phenylacetate] is at most 50 µM.
Consider `CCc1c(O)cc(O)c(-c2cccc(C(=O)OC)c2)c1CCOC` [Compound 131, Methyl 3-[5-ethyl-2,4-dihydroxy-6-(2-methoxyethyl)phenyl]benzoate], for which the GI50 is at most 50 µM.
With `C=CCOCCc1c(CC)c(O)cc(O)c1-c1ccccc1` [Compound 144, 5-(2-Allyloxyethyl)-6-ethyl-4-phenylbenzene-1,3-diol], the GI50 was at most 50 µM.
Take `CCc1c(O)cc(O)c(-c2cccc(OC)c2)c1CC(=O)N(C)CCOC` [Compound 150, 2-[2-Ethyl-3,5-dihydroxy-6-(3-methoxyphenyl)phenyl]-N-(2-methoxyethyl)-N-methylacetamide]: the GI50 was at most 50 µM.
For the compound `COC(=O)c1c(Br)c(O)cc(O)c1-c1ccccc1` [Compound 47, Methyl 2-bromo-3,5-dihydroxy-6-phenylbenzoate], the GI50 is at most 50 µM.
For `COCCc1c(C(=O)OC)c(O)cc(O)c1-c1ccccc1` [Compound 128, Methyl 2,4-dihydroxy-6-(2-methoxyethyl)-5-phenylbenzoate], the GI50 is at most 50 µM.
Turning to `COC(=O)Cc1cc(O)cc(O)c1-c1ccc(C(C)=O)cc1` [Compound 73, Methyl 2-(4-acetylphenyl)-3,5-dihydroxyphenylacetate], the GI50 is at most 50 µM.
`O=C(Cc1c(Br)c(O)cc(O)c1-c1ccccc1)NCc1cccnc1` [Compound 17, 2-(2-Bromo-3,5-dihydroxy-6-phenylphenyl)-N-(pyridin-3-ylmethyl)acetamide]: the GI50 was at most 50 µM.
For the compound `O=C(Cc1c(Br)c(O)cc(O)c1-c1ccccc1)N1CCN(C(=O)c2ccco2)CC1` [Compound 91, 2-(2-Bromo-3,5-dihydroxy-6-phenylphenyl)-1-[4-(2-furoyl)piperazin-1-yl]ethanone], the GI50 was at most 50 µM.
For `CCc1c(O)cc(O)c(-c2cccc(CCC(C)=O)c2)c1CCOCCOC` [Compound 153, 4-(3-{5-Ethyl-2,4-dihydroxy-6-[2-(2-methoxyethoxy)ethyl]phenyl}phenyl)butan-2-one], the GI50 is at most 50 µM.
Regarding `CCOc1cccc(-c2c(O)cc(O)c(C(C)=O)c2CCOC)c1` [Compound 121, 1-[2,4-Dihydroxy-5-(3-ethoxyphenyl)-6-(2-methoxyethyl)phenyl]ethanone], the GI50 is at most 50 µM.
Take `CCc1c(O)cc(O)c(-c2ccco2)c1CCOC` [Compound 244, 6-Ethyl-4-(furan-2-yl)-5-(2-methoxyethyl)benzene-1,3-diol]: the GI50 is at most 50 µM.
Same read-out and setting: as for `CCc1c(O)cc(O)c(-c2ncc(-c3ccccc3)o2)c1CC(=O)OC` [Compound 329, Methyl 2-ethyl-3,5-dihydroxy-6-(5-phenyl-1,3-oxazol-2-yl)phenylacetate], the figure is at most 50 µM; as for `COCCOCCc1cc(OS(N)(=O)=O)cc(O)c1-c1ccccc1` [Compound 152, 3-(2-Methoxyethoxy)ethyl-2-phenyl-5-(sulfamoyloxy)phenol], at most 50 µM.
Regarding `Oc1cc(O)c(-c2ccccc2)c(CCOCC2CCCO2)c1Br` (stereo not shown) [Compound 109, 6-Bromo-5-[2-(oxolan-2-ylmethoxy)ethyl]-4-phenylbenzene-1,3-diol], the GI50 is at most 50 µM.
In the case of `COC(=O)C=Cc1c(Br)c(O)cc(O)c1-c1ccccc1` [Compound 59, Methyl 3-(2-bromo-3,5-dihydroxy-6-phenylphenyl)acrylate], the GI50 was at most 50 µM.
As to `COCCc1c(Br)c(O)cc(O)c1-c1cccc(OC)c1` [Compound 105, 6-Bromo-5-(2-methoxyethyl)-4-(3-methoxyphenyl)benzene-1,3-diol], the GI50 is at most 50 µM.
`CC(=O)C=Cc1c(Br)c(O)cc(O)c1-c1ccccc1` [Compound 60, 4-(2-Bromo-3,5-dihydroxy-6-phenylphenyl)but-3-en-2-one]: the GI50 was at most 50 µM.
As for `COC(=O)CCc1ccc(-c2c(O)cc(O)cc2CC(=O)OC)o1` [Compound 260, Methyl 3-{5-[2,4-dihydroxy-6-(methoxycarbonylmethyl)phenyl]furan-2-yl}propanoate], the GI50 was at most 50 µM.
In the case of `COCCc1c(C(=O)C(F)(F)F)c(O)cc(O)c1-c1ccccc1` [Compound 125, 1-[2,4-Dihydroxy-6-(2-methoxyethyl)-5-phenylphenyl]-2,2,2-trifluoroethanone], the GI50 is at most 50 µM.
On to `O=C(NCc1ccccc1)c1c(Br)c(O)cc(O)c1-c1ccccc1` [Compound 51, N-benzyl-2-bromo-3,5-dihydroxy-6-phenylbenzamide], for which the GI50 was at most 50 µM.
For the compound `COC(=O)Cc1cc(O)cc(O)c1-c1cccc(C#N)c1` [Compound 78, Methyl 2-(3-cyanophenyl)-3,5-dihydroxyphenylacetate], the GI50 is at most 50 µM.
With `CCc1c(O)cc(O)c(-c2ccccc2)c1CCOC1OC(CO)C(O)C(O)C1O` (stereo not shown) [Compound 183, 6-Ethyl-4-phenyl-5-{2-[3,4,5-trihydroxy-6-(hydroxymethyl)tetrahydropyran-2-yloxy]ethyl}benzene-1,3-diol], the GI50 is at most 50 µM.
`CCCc1c(O)cc(O)c(-c2ccccc2)c1CCOC` [Compound 95, 5-(2-Methoxyethyl)-4-phenyl-6-propylbenzene-1,3-diol]: the GI50 was at most 50 µM.
On to `CCc1c(O)cc(O)c(-c2ccccc2)c1CCOCC(O)COCCO` (stereo not shown) [Compound 179, 6-Ethyl-5-{2-[2-hydroxy-3-(2-hydroxyethoxy)propoxy]ethyl}-4-phenylbenzene-1,3-diol], for which the GI50 was at most 50 µM.
As for `COC(=O)Cc1c(Cc2ccccc2)c(O)cc(O)c1-c1ccccc1` [Compound 70, Methyl 2-benzyl-3,5-dihydroxy-6-phenylphenylacetate], the GI50 was at most 50 µM.

For another assay, the system named is human chronic myelocytic leukemia-derived K562 cells. Kind of assay: Cell growth inhibition test with K562 cells (WST-1). It is filed as cell-based. As to conditions: 72 hours, read-out: 50% growth inhibition concentration (GI50). The protocol: In a 96-well plate (Nunc), human chronic myelocytic leukemia-derived K562 cells were sown in an amount of 1500 cells/well, and pre-incubated in 10% FCS-containing Rosewell Park Memorial Institute's Medium (RPMI) 1640 (Nissui) (incubation medium) in a 5% carbon dioxide incubator at 37° C. for 5 hours. Next, a DMSO solution of a test compound controlled at 10 mmol/L was stepwise diluted with the incubation medium, and added to each well in a total amount of 100 μL/well, and further incubated in the 5% carbon dioxide incubator at 37° C. for 72 hours. After the incubation, WST-1-labeled mixture (Rosh Diagnostic) diluted 2-fold with the incubation medium was added thereto in an amount of 20 μL/well, and incubated in the 5% carbon dioxide incubator at 37° C. for 2 hours. Using a microplate spectrophotometer (Biorad's Model 550), the absorbance at 450 nm and 655 nm of each well was measured. The cell growth inhibition activity of the test compound was indicated by the 50% growth inhibition concentration (GI50) thereof, like in Test Example 2.
Turning to `CCc1c(O)cc(O)c(-c2cccc(NC(=O)C(C)(CO)CO)c2)c1CCOCC(O)CO` (stereo not shown) [Compound 207, 5-[2-(2,3-Dihydroxypropoxy)ethyl]-6-ethyl-4-{3-[2-hydroxy-1-(hydroxymethyl)-1-methylethylcarbonylamino]phenyl}benzene-1,3-diol], the GI50 was at most 50 µM.
Regarding `CCc1c(O)cc(O)c(-c2cccc(O)c2)c1Cc1nn(CCOC)c(=O)o1` [Compound 324, 5-{[2-Ethyl-3,5-dihydroxy-6-(3-hydroxyphenyl)phenyl]methyl}-3-(2-methoxyethyl)-3H-1,3,4-oxadiazol-2-one], the GI50 was at most 50 µM.
Same read-out and setting: as for `CCc1c(O)cc(O)c(-c2cccc(OC)c2)c1CC1O[C@H](CO)[C@@H](CO)O1` [Compound 286, 5-{[(4R,5R)-4,5-bis(hydroxymethyl)-1,3-dioxolan-2-yl]methyl}-6-ethyl-4-(3-methoxyphenyl)benzene-1,3-diol], the figure is at most 50 µM.
